Measured values: patent publication US4505929A, “Sulfur-substituted diphenyl ethers having antiviral activity” (The Dow Chemical Company, priority 1982, dated 1985)
In brackets after ≈: the same amount, converted by molar mass. Read-outs that look alike come from different tables or passages of the source.

How the values were obtained:
Format in all cases: cell-based
[1] = Cytotoxicity to HeLa cells in tissue culture testing; details: human
Method: (§1) Monolayered HeLa cells in 16 millimeter (mm) tissue culture dishes were treated with 1 ml of culture medium (Eagles medium supplemented with fetal calf serum) containing subject compound at an appropriate concentration or containing no compound at all. Culture media such as those described herein are more fully described in standard texts, as for example, Kuchler's Biochemical Methods in Cell Culture and Virology, Dowden, Hutchinson and Ross, Inc., Stroudsberg, PA (1977). Following treatment, cells were challenged with 0.05 ml of rhinovirus type 1A (RV-1A), rhinovirus type 2 (RV-2) or Coxsackie A21 virus (Cox A21) in culture medium. Some of the compounds were also tested against rhinovirus type 5 (RV-5), rhinovirus type 8 (RV-8) or rhinovirus type 64 (RV-64). Cell controls received no viruses.
^x Cytotoxicity figures represent the concentration of the compound,
micrograms/milliliter (μg/ml) found to be toxic to the cell.
means "approximately "; "<<" "considerably less than " and "G.I." means

rhinovirus type 5 (RV-5) = assay: Tissue culture antiviral test (HeLa cells), RV-5; details: Enterovirus, 48 and 72 hours post-treatment, read-out: Lowest concentration necessary to cause a 50 percent reduction in cytopathic effect, RV-5
Method: as §1
(§2) ^xx Lowest concentration of the compound (μg/ml) necessary to caus
(§3) a 50 percent reduction in cytopathic effect.

[2] = system: rhinovirus type 1A (RV-1A); assay: Tissue culture antiviral test (HeLa cells), RV-1A; details: Enterovirus, 48 and 72 hours post-treatment, read-out: Lowest concentration necessary to cause a 50 percent reduction in cytopathic effect, RV-1A
Method: as §1, §2, §3

rhinovirus type 2 (RV-2) = assay: Tissue culture antiviral test (HeLa cells), RV-2; details: Enterovirus, 48 and 72 hours post-treatment, read-out: Lowest concentration necessary to cause a 50 percent reduction in cytopathic effect, RV-2
Method: as §1, §2, §3

[3] = system: rhinovirus type 64 (RV-64); assay: Tissue culture antiviral test (HeLa cells), RV-64; details: Enterovirus, 48 and 72 hours post-treatment, read-out: Lowest concentration necessary to cause a 50 percent reduction in cytopathic effect, RV-64
Method: as §1, §2, §3

rhinovirus type 8 (RV-8) = assay: Tissue culture antiviral test (HeLa cells), RV-8; details: Enterovirus, 48 and 72 hours post-treatment, read-out: Lowest concentration necessary to cause a 50 percent reduction in cytopathic effect, RV-8
Method: as §1, §2, §3

[4] = system: Coxsackie A21 virus (Cox A21); assay: Tissue culture antiviral test (HeLa cells), Cox A21; details: 48 and 72 hours post-treatment, read-out: Lowest concentration necessary to cause a 50 percent reduction in cytopathic effect, Cox A21
Method: as §1, §2, §3

[5] = concentration found to be toxic to the cell, observed at 48 and 72 hours, read-out: Cytotoxicity
[6] = G.I. = growth inhibition: at the concentration shown the compound inhibited growth of the tissue culture, read-out: Cytotoxicity (G.I.)

SMILES	MCC [1, 5]	EC50 (rhinovirus type 5 (RV-5))	EC50 [2]	EC50 (rhinovirus type 2 (RV-2))	EC50 [3]	EC50 (rhinovirus type 8 (RV-8))	EC50 [4]	MCC [1, 6]
CCN(CC)CCOc1ccc(Oc2ccc(S(C)(=O)=O)cc2)cc1 [Example 24]	≤ 20 µg/mL	2.5 µg/mL (≈ 6.88 µM)	1.25 µg/mL (≈ 3.44 µM)					
CS(=O)(=O)c1ccc(Oc2ccc(O)cc2)cc1 [Example 21, 4-(4-(Methylsulfonyl)phenoxy)phenol]	25 µg/mL		~25 µg/mL (≈ 94.6 µM)	~25 µg/mL (≈ 94.6 µM)				
CS(=O)(=O)c1ccc(Oc2ccc(C#N)cc2)cc1 [Example 8, 4-(4-(Methylsulfonyl)phenoxy)benzonitrile]	50 µg/mL	12.5 µg/mL (≈ 45.7 µM)	12.5 µg/mL (≈ 45.7 µM)	12.5 µg/mL (≈ 45.7 µM)	12.5 µg/mL (≈ 45.7 µM)	25 µg/mL (≈ 91.5 µM)	< 6.25 µg/mL	
CS(=O)(=O)c1ccc(Oc2ccc(Cl)cc2)cc1 [Example 2, 4-(4-(Methylsulfonyl)phenoxy)-1-chlorobenzene]			1.25 µg/mL (≈ 4.42 µM)	1.25 µg/mL (≈ 4.42 µM)			0.625 µg/mL (≈ 2.21 µM)	10 µg/mL
C[S+]([O-])c1ccc(Oc2ccc([N+](=O)[O-])cc2)cc1 (centres unmarked) [Example 29, 1-(Methylsulfinyl)-4-(4-nitrophenoxy)benzene]	25 µg/mL		≤ 6.25 µg/mL	≤ 6.25 µg/mL			< 6.25 µg/mL	
CS(=O)(=O)c1ccc(Oc2ccc(Cl)c(Cl)c2)c([N+](=O)[O-])c1 [Example 15, 4-(4-(Methylsulfonyl)-2-nitrophenoxy)-1,2-dichlorobenzene]	> 100 µg/mL			6.25 µg/mL (≈ 17.3 µM)				
CSc1ccc(Oc2ccc([N+](=O)[O-])cc2[N+](=O)[O-])cc1 [Example 28, 1-(4-(Methylthio)phenoxy)-2,4-dinitrobenzene]			≤ 6.25 µg/mL	< 6.25 µg/mL			≤ 6.25 µg/mL	50 to 100 µg/mL
CCN(CC)S(=O)(=O)c1ccc(Oc2ccc(S(C)(=O)=O)cc2)cc1 [Example 13, N,N-Diethyl-4-(4-(methylsulfonyl)phenoxy)benzenesulfonamide]			50 µg/mL (≈ 130 µM)				25 µg/mL (≈ 65.2 µM)	100 µg/mL
CS(=O)(=O)c1ccc(Oc2ccc(OC(F)(F)C(Cl)Cl)cc2)cc1 [Example 22, 1-(2,2-Dichloro-1,1-difluoroethoxy)-4-(4-(methylsulfonyl)phenoxy)benzene]	2.5 µg/mL	~1.25 µg/mL (≈ 3.15 µM)	2.5 µg/mL (≈ 6.29 µM)	1.25 µg/mL (≈ 3.15 µM)			0.625 µg/mL (≈ 1.57 µM)	
CN(C)S(=O)(=O)c1ccc(Oc2ccc(S(=O)(=O)c3ccccc3)cc2)cc1 [Example 11, N,N-Dimethyl-4-(4-(phenylsulfonyl)phenoxy)benzenesulfonamide]	1.25 µg/mL		0.625 µg/mL (≈ 1.5 µM)	0.625 µg/mL (≈ 1.5 µM)			0.625 µg/mL (≈ 1.5 µM)	
COc1ccc(Oc2ccc(S(C)(=O)=O)cc2)cc1 [Example 18, 4-(4-(Methylsulfonyl)phenoxy)-1-methoxybenzene]	> 50 µg/mL		6.25 µg/mL (≈ 22.5 µM)	12.5 µg/mL (≈ 44.9 µM)	12.5 µg/mL (≈ 44.9 µM)		25 µg/mL (≈ 89.8 µM)	
Cc1cc(Oc2ccc(Cl)c(Cl)c2)ccc1S(C)(=O)=O [Example 19, 4-(3-Methyl-4-(methylsulfonyl)phenoxy)-1,2-dichlorobenzene]	> 50 µg/mL	12.5 µg/mL (≈ 37.7 µM)	< 3.12 µg/mL	6.25 µg/mL (≈ 18.9 µM)	< 3.12 µg/mL			
CN(C)S(=O)(=O)c1ccc(Oc2ccc(S(C)(=O)=O)cc2)cc1 [Example 12, N,N-Dimethyl-4-(4-(methylsulfonyl)phenoxy)benzenesulfonamide]							50 µg/mL (≈ 141 µM)	100 µg/mL
C[S+]([O-])c1ccc(Oc2ccc(C#N)cc2)cc1 (centres unmarked) [Example 7, 4-(4-(Methylsulfinyl)phenoxy)benzonitrile]	25 µg/mL		3.12 µg/mL (≈ 12.1 µM)	3.12 µg/mL (≈ 12.1 µM)			3.12 µg/mL (≈ 12.1 µM)	
O=S(=O)(c1ccccc1)c1ccc(Oc2ccc(Cl)c(Cl)c2)cc1 [Example 10, 4-(4-(Phenylsulfonyl)phenoxy)-1,2-dichlorobenzene]	50 µg/mL			6.25 µg/mL (≈ 16.5 µM)			6.25 µg/mL (≈ 16.5 µM)	
CS(=O)(=O)c1ccc(Oc2ccc(Cl)c(Cl)c2)c(Cl)c1 [Example 14, 4-(2-Chloro-4-(methylsulfonyl)phenoxy)-1,2-dichlorobenzene]	50 µg/mL		12.5 µg/mL (≈ 35.5 µM)	≤ 6.25 µg/mL			12.5 µg/mL (≈ 35.5 µM)	
CS(=O)(=O)c1ccc(Oc2ccc(Br)cc2)cc1 [Example 9, 1-Bromo-4-(4-(methylsulfonyl)phenoxy)benzene]	12.5 µg/mL	12.5 µg/mL (≈ 38.2 µM)	< 3.12 µg/mL	< 3.12 µg/mL		12.5 µg/mL (≈ 38.2 µM)	< 3.12 µg/mL	
CS(=O)(=O)c1ccc(Oc2ccc([N+](=O)[O-])cc2[N+](=O)[O-])cc1 [Example 31, 1-(4-(Methylsulfonyl)phenoxy)-2,4-dinitrobenzene]	25 µg/mL		~12.5 µg/mL (≈ 36.9 µM)	~12.5 µg/mL (≈ 36.9 µM)			≤ 6.25 µg/mL	
CS(=O)(=O)c1ccc(Oc2ccc(C(=O)c3ccccc3)cc2)cc1 [Example 4, (4-(4-(Methylsulfonyl)phenoxy)phenyl)phenylmethanone]	> 100 µg/mL			50 µg/mL (≈ 142 µM)	100 µg/mL (≈ 284 µM)		< 6.25 µg/mL	
CSc1ccc(Oc2ccc([N+](=O)[O-])cc2)cc1 [Example 27, 1-(Methylthio)-4-(4-nitrophenoxy)benzene]	12.5 µg/mL		6.25 µg/mL (≈ 23.9 µM)	≤ 6.25 µg/mL			≤ 6.25 µg/mL	
CS(=O)(=O)c1ccc(Oc2ccc([N+](=O)[O-])cc2)cc1 [Example 32, 1-(Methylsulfonyl)-4-(4-nitrophenoxy)benzene]	50 µg/mL		12.5 µg/mL (≈ 42.6 µM)	≤ 6.25 µg/mL			< 6.25 µg/mL	
CS(=O)(=O)c1ccc(Oc2ccc(Cl)c(Cl)c2)c(C#N)c1 [Example 17, 2-(3,4-Dichlorophenoxy)-5-(methylsulfonyl)benzonitrile]	> 100 µg/mL		12.5 µg/mL (≈ 36.5 µM)	25 µg/mL (≈ 73.1 µM)			12.5 µg/mL (≈ 36.5 µM)	
CSc1ccc(Oc2ccc(C#N)cc2)cc1 [Example 5, 4-(4-(Methylthio)phenoxy)benzonitrile]	6.25 µg/mL		< 3.12 µg/mL	< 3.12 µg/mL			< 3.12 µg/mL	
C[S+]([O-])c1ccc(Oc2ccc([N+](=O)[O-])cc2[N+](=O)[O-])cc1 (centres unmarked) [Example 30, 1-(4-(Methylsulfinyl)phenoxy)-2,4-dinitrobenzene]	12.5 µg/mL			~6.25 µg/mL (≈ 19.4 µM)			6.25 µg/mL (≈ 19.4 µM)	
CS(=O)(=O)c1ccc(Oc2ccc(Cl)c(Cl)c2)c(N)c1 [Example 16, 2-(3,4-Dichlorophenoxy)-5-(methylsulfonyl)benzenamine]	≤ 6.25 µg/mL		< 6.25 µg/mL	6.25 µg/mL (≈ 18.8 µM)			6.25 µg/mL (≈ 18.8 µM)	
O=S(=O)(c1ccc(Oc2ccc(Cl)c(Cl)c2)cc1)C(F)(F)F [Example 25, 4-(4-((Trifluoromethyl)sulfonyl)phenoxy)-1,2-dichlorobenzene]	> 50 µg/mL		12.5 µg/mL (≈ 33.7 µM)	6.25 µg/mL (≈ 16.8 µM)			< 3.12 µg/mL	
C[S+]([O-])c1ccc(Oc2ccc(Cl)c(Cl)c2)cc1 (centres unmarked) [Example 6, 1,2-Dichloro-4-(4-(methylsulfinyl)phenoxy)benzene]	12.5 µg/mL		< 0.31 µg/mL	< 0.31 µg/mL	< 0.31 µg/mL			
